This is an account of results in patent publication US9295754B2, “Noggin inhibitory compositions for ossification and methods related thereto” (Emory University, priority 2011, dated 2016).

In one assay the test system is bone growth. In words: Collagen disc implantation with Noggin-blockers and BMP-2 in rat ectopic model. Type of assay: in vivo, Harlan athymic rats. The settings on record: for Average / Results: 100ul, collagen carrier, chest implant, 4 weeks. An excerpt: Harlan athymic rats about 5-6 weeks of age were chest implanted with a collegan disc and doses of N50 in combination with BMP-2. After 4 weeks the rats were sacrificed and evaluated for bone growth.

Another assay deals with T1, Noggin (Homo sapiens, UniProt Q13253).
T1 construct: host or cells: added to mouse C2C12 cells
T1 sequence (Q13253 28-232): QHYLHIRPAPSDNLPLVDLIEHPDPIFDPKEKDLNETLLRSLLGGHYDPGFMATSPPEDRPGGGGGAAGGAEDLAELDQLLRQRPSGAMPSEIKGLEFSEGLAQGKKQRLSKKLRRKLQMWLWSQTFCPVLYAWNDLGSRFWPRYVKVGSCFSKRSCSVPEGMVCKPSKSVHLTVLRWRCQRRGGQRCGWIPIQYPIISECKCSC
In words: in vitro cell-based screening assays (luciferase reporter and ALP assays in C2C12 cells). The settings on record: BMP-2 +/- Noggin, FIG. 2-5. The method, then:
The known crystals structures of complexes of BMP-2/BMPR-IA, BMP7/Noggin and BMP-2/BMPR-IA/ActR-II and BMPR-II monomer structures were analyzed. Using these structures ternary complexes of BMP-2/BMPR-IA/BMPR-II and BMP-2/Noggin (from BMP7/Noggin) were modeled. Solvent accessibility of complexes and the monomers were computed to identify exact binding regions and the individual residues involved in binding. The entire 430 Å^2 surface area of Noggin that binds to BMP-2 and thus block binding of BMP to BMPR-IA and BMPR-II binding regions were analyzed. Complementary regions in BMP were also evaluated in extensive virtual screenings using LUDI docking procedures using CAP commercially available molecular databases.
Mouse C2C12 cells and Dulbecco's modified Eagle's medium (DMEM) were purchased from ATCC (Manassas, Va.). […] When the flasks reached 80% confluence, the cells were trypsinized and seeded in triplicate at 200,000 cells/well in a 6-well plate for quantitative real-time RT-PCR and alkaline phosphatase (ALP) assays or at 50,000 cells/well in a 12-well plate for the dual-luciferase reporter assay.
The C2C12 cells were plated at 200,000 cells/well in 6-well plates and grown overnight in DMEM containing 10% FBS. […] The ALP activity was measured in triplicate using an ALP assay kit (Sigma-Aldrich, St. Louis, Mo.) in microtiter plates. […]
On the technique in general: In a reporter assay the amount or activity of a reporter protein is the signal.

The subject of assay [1] is fetal rat calvarial osteoblast primary cell cultures. The assay can be described thus: BMP-induced bone nodules in fetal rat calvarial osteoblast primary cell cultures. It is filed as cell-based. The note with it: FIG. 6.
The next assay addresses T2, endogenous Noggin (Mus musculus, UniProt P97466).
T2 construct: in the absence of exogenously added Noggin in C2C12 cells; endogenous in cells; host or cells: mouse C2C12 cells (ATCC)
T2 sequence (P97466 28-232): T1 sequence (Q13253 28-232) with A67P
The assay can be described thus: BMP-induced ALP activity in C2C12 cells without exogenously added Noggin. It is filed as cell-based. The note with it: absence of exogenously added Noggin, FIG. 8. As for the experimental part: Mouse C2C12 cells and Dulbecco's modified Eagle's medium (DMEM) were purchased from ATCC (Manassas, Va.). The non-heat inactivated fetal bovine serum (FBS) was purchased from HyClone Laboratories, Inc. (Logan, Utah). The C2C12 cells at passages 4 to 7 were subcultured in T-75 cm2 flasks in DMEM supplemented with 10% FBS at 37° C. in 5% CO2 with humidification. When the flasks reached 80% confluence, the cells were trypsinized and seeded in triplicate at 200,000 cells/well in a 6-well plate for quantitative real-time RT-PCR and alkaline phosphatase (ALP) assays or at 50,000 cells/well in a 12-well plate for the dual-luciferase reporter assay.
The C2C12 cells were plated at 200,000 cells/well in 6-well plates and grown overnight in DMEM containing 10% FBS. On day 2, the culture medium was replaced with DMEM containing 2% FBS and the cells were treated with 100 ng/ml of BMP-2, +/−various concentrations of the Noggin-interacting compound, and +/−100 ng/ml of Noggin for 72 hours. […] The ALP activity was measured in triplicate using an ALP assay kit (Sigma-Aldrich, St. Louis, Mo.) in microtiter plates. The protein amount was determined with Bio-Rad protein assay reagent (Bio-Rad, Hercules, Calif.) using bovine serum albumin (BSA) as a standard. […]

Where a chain is given by its changes, count along the chain named.

In the case of `N#CC(=Cc1cccc(Cl)c1)c1ccccn1` (racemic) [N50, 3-(3-chlorophenyl)-2-(pyridin-2-yl)acrylonitrile], the Average in the assay with bone growth (N50 4 mM + BMP-2 1.5 ug) amounted to 3; with bone growth (N50 4 mM + BMP-2 5 ug), 4.25; in the assay on bone growth (N50 8 mM + BMP-2 1.5 ug), 1.75; in the assay on bone growth (N50 8 mM + BMP-2 5 ug), 3.25; in the assay on bone growth (N50 12 mM + BMP-2 1.5 ug), 3.5; in the assay with bone growth (N50 12 mM + BMP-2 5 ug) it was 4.75. The Results result is listed as “Bone made (4 of 4)” with bone growth (N50 4 mM + BMP-2 1.5 ug); “Bone made (4 of 4)” with bone growth (N50 4 mM + BMP-2 5 ug); “Bone made (2 of 4)” in the assay with bone growth (N50 8 mM + BMP-2 1.5 ug); “Bone made (3 of 4)” in the assay on bone growth (N50 8 mM + BMP-2 5 ug); “Bone made (4 of 4)” in the assay with bone growth (N50 12 mM + BMP-2 1.5 ug); “Bone made (4 of 4)” with bone growth (N50 12 mM + BMP-2 5 ug). In the assay with bone growth (N50 in combination with BMP-2, after 4 weeks, certain doses), the bone growth entry is reported as “Certain doses showed improvement”. The Noggin blocking entry on Noggin was “confirmed Noggin blockers”. The BMP-induced bone nodules entry in assay [1] is “potentiation of BMP-induced bone nodules”.

`Cc1cc(C)nc(NC(=O)c2sc3ccccc3c2Cl)c1` [N2, 3-chloro-N-(4,6-dimethylpyridin-2-yl)benzo[b]thiophene-2-carboxamide]: the Noggin blocking entry at Noggin was “confirmed Noggin blockers”.

As for `Cc1ccc(C(C#N)=Cc2cccc([N+](=O)[O-])c2)cc1` [N50-083, 3-(3-nitrophenyl)-2-(p-tolyl)acrylonitrile], the “function of endogenous Noggin / BMP-induced ALP activity” value at endogenous Noggin was “blocks function of endogenous Noggin by potentiating BMP-induced ALP activity”.
